Data as given in US20230088774A1, “Herbicide Combinations Comprising Glufosinate and Oxadiazon” (BASF SE, priority 2020, published 2023).

How the values were obtained:
Conditions in all cases: 504 h
[1] = tested on: Amaranthus tamariscinus (AMATA); assay: Greenhouse post-emergence weed control, common waterhemp; format: in vivo
Description: (§1) For post-emergence treatments, glufosinate and oxadiazon, which had been suspended in water, were applied using spray nozzles providing fine to coarse droplets.
(§2) The herbicide compounds applied in the examples were used as experimental or commercially available solo or premix formulations which have been diluted with tap water to a suitable concentration. Glufosinate was used as a commercial SL formulation containing 280 g ai/l of glufosinate (Liberty 280 SL, BASF). While the PPO herbicide Ronstar Flo containing 380 g ai/l oxadiazon was used (Ronstar Flo, Bayer) formulation.
(§3) The evaluation for plant injury or damage caused by the chemical compositions was carried out using a scale from 0-100% when compared with the untreated control plants. Here, 0 means no damage and 100 means complete destruction of the plants.
(§4) 22., E=X+Y−(X*Y/100), where
(§5) X=effect in percent using herbicide A at an application rate of a;
(§6) Y=effect in percent using herbicide B at an application rate of b;
(§7) E=expected effect (in %) of A+B at application rates a+b.
(§8) The value E corresponds to the effect (plant damage or injury) which is to be expected if the activity of the individual compounds is just additive. If the observed effect is higher than the value E calculated according to Colby, a synergistic effect is present. […]

[2] = tested on: Lolium multiflorum (LOLMU); assay: Greenhouse post-emergence weed control, Italian ryegrass; format: in vivo
Description: as §1, §2, §3, §4, §5, §6, §7, §8

[3] = tested on: Echinochloa crus-galli (ECHCG); assay: Greenhouse post-emergence weed control, barnyardgrass; format: in vivo
Description: as §1, §2, §3, §4, §5, §6, §7, §8

[4] = tested on: Amaranthus Palmerii (AMAPA); assay: Greenhouse post-emergence weed control, Palmer amaranth; format: in vivo, Amaranthus palmeri
Description: as §1, §2, §3, §4, §5, §6, §7, §8

[5] = post-emergence, read-out: Solo Glufosinate % activity

SMILES	inhibition at 327 g/ha [1, 5]	inhibition at 327 g/ha [2, 5]	inhibition at 327 g/ha [3, 5]	inhibition at 327 g/ha [4, 5]	inhibition at 0.8 g/ha ([1]; AMATA, 0.8 g ai/ha post-emergence, 1% (v/v) MSO, 21 DAT, scale 0-100% injury, read-out: Solo Oxadiazon % activity)	inhibition at 0.8 g/ha ([2]; LOLMU, 0.8 g ai/ha post-emergence, 1% (v/v) MSO, 21 DAT, scale 0-100% injury, read-out: Solo Oxadiazon % activity)	inhibition at 0.8 g/ha ([3]; ECHCG, 0.8 g ai/ha post-emergence, 1% (v/v) MSO, 21 DAT, scale 0-100% injury, read-out: Solo Oxadiazon % activity)	inhibition at 0.8 g/ha ([4]; AMAPA, 0.8 g ai/ha post-emergence, 1% (v/v) MSO, 21 DAT, scale 0-100% injury, read-out: Solo Oxadiazon % activity)
CP(=O)(O)CCC(N)C(=O)O (racemic) [Glufosinate, (2RS)-2-amino-4-[hydroxy(methyl)phosphinoyl]butyric acid]	93%	33%	40%	94%	–	–	–	–
CC(C)Oc1cc(-n2nc(C(C)(C)C)oc2=O)c(Cl)cc1Cl [Oxadiazon]	–	–	–	–	28%	28%	30%	27%
